≈ marks a conversion by molar mass, not a printed value. Non-standard residues stand in square brackets, D forms with d. Residues, ends and D or L forms follow the SMILES beside them. NBzl(4-I)Gly = O=C(O)CNCc1ccc(I)cc1; Nspe = C[C@H](NCC(=O)O)c1ccccc1; Nlys = NCCCCNCC(=O)O
Assays:
E. coli ATCC 25922 = type: cell-based, Escherichia coli
Outline: (§1)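 Broth microdilution per CLSI in MHB II, final inoculum 5 × 10^5 CFU/mL, with twofold peptoid dilutions. Incubation was 18 h at 37 °C in ambient air. MIC was taken as the lowest concentration without visible growth, from two experiments on different days in technical triplicate.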

[1] = Critical aggregation concentration from SAXS fit analysis; type: physicochemical
Experimental: SAXS experiments of the 10-mer peptoids were performed at the automated BM29 bioSAXS beamline at the European Synchrotron Radiation Facility (ESRF) in Grenoble, France[45]. The data was obtained using an energy of 12.5 keV and a detector distance of 2.87 m, covering a q range ( q=4πsin(θ/2)/λ ), where θ is the scattering angle and λ is the X-ray wavelength) of about 0.0047 to 0.5 Å^−1. The data set was calibrated to an absolute intensity scale using water as a primary standard. 40 µL samples were run through a capillary using the flow mode of the automated sample changer. SAXS data was collected in ten successive frames of 0.5 s each to monitor radiation damage and the data reduction was done using the standard tool at BM29[47].
The SAXS experiments on the fully iodinated 6-, 8-, and 12-mers to determine the CAC of the compounds were performed using a Bruker NANOSTAR equipped with a microfocus X-ray source (IμS Cu, Incoatec, Germany) and a VÅNTEC-2000 detector. Raw scattering data was calibrated to absolute intensity scale using water as a primary standard and radially averaged in order to obtain the 1D scattered intensity profile as a function of the scattering vector, with a wavelength of 1.54 Å.
The modelling fit analysis of the scattering data is explained in detail in the supplementary information.

[2] = tested on: selected bacterial strains (S. aureus, S. epidermidis, E. coli, P. aeruginosa); type: cell-based
Experimental: All 36 peptoids were tested against seven bacterial strains: five Gram-positive (Staphylococcus aureus ATCC 25923 and ATCC 29213, methicillin-resistant Staphylococcus aureus USA 300, methicillin-resistant Staphylococcus epidermidis ET-024 and ATCC 51625) and two Gram-negative (Escherichia coli ATCC 25922, Pseudomonas aeruginosa PA01) (Table 1).
Bacterial growth inhibition was determined by using broth microdilution according to the Clinical Laboratory Standards Institute[43]. The antibacterial activity of peptoids was tested against S. aureus ATCC 25923, ATCC29213, and methicillin resistant S. aureus USA 300, methicillin resistant S. epidermidis ATCC 51625, a biofilm producing methicillin resistant S. epidermidis ET-024[44], P. aeruginosa Pa01 (H103), and E. coli ATCC 25922. Bacteria, grown on agar plates for 18 h at 37 °C, were diluted to ∼1 × 10^8 CFU/mL in Mueller‐Hinton Broth II (MHB II). Twofold serial dilutions of peptoids in MHB II were inoculated with bacteria to achieve a final concentration of 5 × 10^5 CFU/mL in polypropylene 96 U‐well microtiter plates (Corning 3,897; ThermoFisher Scientific, Roskilde), followed by incubation at 37 °C in ambient air for 18 h. The MIC values were determined as the lowest concentration showing no visible bacterial growth. Experiments were performed twice (in technical triplicates) on 2 different days.

[3] = tested on: Methicillin-resistant S. epidermidis ATCC 51625; type: cell-based, Staphylococcus epidermidis
Outline: as §1

[4] = tested on: Methicillin-resistant S. epidermidis ET-024; type: cell-based, Staphylococcus epidermidis
Outline: as §1

[5] = tested on: P. aeruginosa PA01 (H103); type: cell-based, Pseudomonas aeruginosa
Outline: as §1

S. aureus ATCC 25923 = type: cell-based, Staphylococcus aureus
Outline: as §1

[6] = tested on: Methicillin-resistant S. aureus USA 300; type: cell-based, Staphylococcus aureus
Outline: as §1

S. aureus ATCC 29213 = type: cell-based, Staphylococcus aureus; settings: ATCC 29213, 18 h
Outline: as §1

HaCaT cell line = type: cell-based, human; settings: 1 h exposure, MTS/PMS assay; interval in brackets
Experimental: An immortalized human keratinocytes (HaCaT) cell line (Gift from David G. Naym at Bispebjerg Hospital) were cultured to ∼90% confluence after 21–25 h of growth at 5% CO2 and 37 °C as previously. In brief, the cells were cultured in Dulbecco’s Modified Eagle’s Medium supplemented with 10% (v/v) fetal bovine serum, penicillin (100 IU/mL), and streptomycin (100 μg/mL), purchased from Sigma-Aldrich (St. Louis, MO, United States).
Cell viability assessment was performed on cell monolayers grown to ∼90% confluence in 96-well plates Corning Costar (Sigma-Aldrich, Brøndby, Denmark) by using the MTS/PMS assay as previously described. Briefly, the adhered cells were washed with 37 °C PBS solution (ThermoFisher Scientific, Roskilde) and exposed for 1 h at 37 °C to 100 μL of peptoids dissolved in the medium also used for culturing of the cell line (at concentrations in the range 0–1,000 μg/mL). The precise exposure-time were selected to enable comparison with related peptoid compounds[21],[35]. […] A plate reader (SpectraMax i3X; Molecular devices, San Jose, CA) was used to measure the absorbance at 492 nm. The relative viability was calculated by using 0.2% (w/v) sodium dodecyl sulfate (SDS) as the positive control, while cells exposed to medium without test compound were used as the negative control. […]

| SMILES | Minimal inhibitory concentration EC^f (E. coli ATCC 25922; ATCC 25922, 18 h) [µg/mL] | critical aggregation concentration (CAC) [1] [mg/mL] | antimicrobial potency against the selected bacterial strains, in words [2] | Minimal inhibitory concentration MRSE^e ([3]; ATCC 51625, 18 h) [µg/mL] | Minimal inhibitory concentration MRSE^d ([4]; Methicillin-resistant ET-024, 18 h) [µg/mL] | Minimal inhibitory concentration PA^g ([5]; H103, 18 h) [µg/mL] | Minimal inhibitory concentration SA^a (S. aureus ATCC 25923; ATCC 25923, 18 h) [µg/mL] | Minimal inhibitory concentration MRSA^c ([6]; USA 300, 18 h) [µg/mL] | Minimal inhibitory concentration SA^b (S. aureus ATCC 29213) [µg/mL] | MIC EC^e (E. coli ATCC 25922; Table 2, E. coli ATCC 25922) [µg/mL] | IC50 towards HaCaT cell line (HaCaT cell line) | MIC MRSE^d ([3]; Table 2, MRSE ATCC 51625) [µg/mL] | MIC MRSE^c ([4]; Table 2, MRSE ET-024) [µg/mL] | MIC PA^f ([5]; Table 2, P. aeruginosa PA01 H103) [µg/mL] | MIC SA^a (S. aureus ATCC 25923; Table 2, S. aureus ATCC 25923) [µg/mL] | MIC MRSA^b ([6]; Table 2, MRSA USA 300) [µg/mL] |
| --- | --- | --- | --- | --- | --- | --- | --- | --- | --- | --- | --- | --- | --- | --- | --- | --- |
| NCCCCNCC(=O)N(CC(=O)N(CCCCN)CC(=O)N(CC(=O)N(CCCCN)CC(=O)N(CC(=O)N(CCCCN)CC(=O)N(CC(=O)N(CCCCN)CC(=O)N(CC(=O)N(CCCCN)CC(=O)N(CC(N)=O)Cc1ccc(I)cc1)Cc1ccc(I)cc1)Cc1ccc(I)cc1)Cc1ccc(I)cc1)Cc1ccc(I)cc1)Cc1ccc(I)cc1 [Compound 32] (H-[Nlys][NBzl(4-I)Gly][Nlys][NBzl(4-I)Gly][Nlys][NBzl(4-I)Gly][Nlys][NBzl(4-I)Gly][Nlys][NBzl(4-I)Gly][Nlys][NBzl(4-I)Gly]-NH2) | > 512 | 0.4 | the activity was lost | 16 (≈ 6.6 µM) | 32 (≈ 13.2 µM) | > 512 | 64 (≈ 26.4 µM) | 32 (≈ 13.2 µM) | 128 (≈ 52.8 µM) | – | – | – | – | – | – | – |
| C[C@@H](c1ccccc1)N(CC(N)=O)C(=O)CN(C(=O)CN(CCCCN)C(=O)CN(C(=O)CN(C(=O)CN(CCCCN)C(=O)CN(C(=O)CN(C(=O)CN(CCCCN)C(=O)CN(C(=O)CN(C(=O)CNCCCCN)[C@@H](C)c1ccccc1)[C@@H](C)c1ccccc1)[C@@H](C)c1ccccc1)[C@@H](C)c1ccccc1)[C@@H](C)c1ccccc1)[C@@H](C)c1ccccc1)[C@@H](C)c1ccccc1 [Peptoid 1, reference compound] (H-[Nlys][Nspe][Nspe][Nlys][Nspe][Nspe][Nlys][Nspe][Nspe][Nlys][Nspe][Nspe]-NH2) | – | – | – | – | – | – | – | – | – | 8 (≈ 4.4 µM) | 35.0 (30.9 to 39.9) μg/mL | 8 (≈ 4.4 µM) | 4 (≈ 2.2 µM) | 16 (≈ 8.79 µM) | 8 (≈ 4.4 µM) | 8 (≈ 4.4 µM) |

From publication PMC7481290, “Halogenation as a tool to tune antimicrobial activity of peptoids” (Scientific Reports, 2020)
